Assay results from patent US20240000707A1, “INHALABLE DRY POWDER FORMULATIONS COMPRISING ANGIOGENESIS INHIBITORS” (Lonza Bend Inc., priority 2020, published 2024).

System: NSCLC cell line Calu-3
Assay: Orthotopic nude rat model for lung cancer, inhaled vs IP bevacizumab, primary and maintenance treatment
Type: in vivo
Details: week 8; INH 1.5 mg/kg deposited vs IP 15 mg/kg; cisplatin IP 3 mg/kg
Protocol: NSCLC cell line Calu-3 was instilled into the lungs of X-irradiated rats by an intratracheal route, targeting […] cells per installation. For the first four weeks of the study, no treatment was administered, allowing growth of the tumor cells. Inhaled bevacizumab SDD was evaluated as a primary treatment as well as a maintenance therapy.
Cisplatin was administered by IP at 3 mg/kg. Powder was aerosolized using a rotating brush generator and delivered to the rats passively through nasal inhalation. […] Groups 1-4 were evaluated for primary efficacy after 8 weeks with lung weight as the end point. Groups 5-7 were evaluated for maintenance efficacy after 12 weeks with lung weight and survival as the end point.

Substance: Bevacizumab [IP bevacizumab]
- tumor burden, co-administered with cisplatin, inhaled vs IP bevacizumab: indistinguishable, and significantly lower than group 1 and 3
